pIC50: −log10 of the molar value. A value given as a limit tells only on which side of the number the result lay.

A word on the pIC50: it is the IC50 on a negative log10 scale, so that one unit is a factor of ten. Lower therefore signals a large IC50.

The test system of one experiment is HCT116. Briefly: Inhibition of cell proliferation, HCT116. It is filed as cell-based. Conditions: Homo sapiens, HCT-116; 72 h treatment; methylene blue or CellTiter-Glo. A general note: Cellular ATP, detected with luciferase, serves as a proxy for viable cell number.
The next experiment has as its target T1, PLK1 kinase domain (Homo sapiens, UniProt P53350).
T1 construct: His-tagged PLK kinase domain (amino acids 21-346 preceded by MKKGHHHHHHD); made in house; host or cells: baculovirus-infected T. ni insect cells
The experiment is described as follows: Assay for inhibition of PLK1 (33P SPA kinase assay). It is filed as biochemical. Conditions: 2 nM PLK1 kinase domain, 1 μM ATP, 1 μM substrate peptide; read-out: PLK1 pIC50 (converted). The method, then: I. Assay for Inhibition of PLK1
A. Preparation of 6× N-Terminal His-Tagged PLK Kinase Domain
6× N-terminal His-tagged PLK kinase domain (amino acids 21-346 preceded by MKKGHHHHHHD) SEQ ID: No. 1. was prepared from baculovirus infected T. ni cells under polyhedrin promoter control. All procedures were performed at 4° C. Cells were lysed in 50 mM HEPES, 200 mM NaCl, 50 mM imidazole, 5% glycerol; pH 7.5. The homogenate was centrifuged at 14K rpm in a SLA-1500 rotor for 1 br and the supernatant filtered through a 1.2 micron filter. The supernatant was loaded onto a Nickel chelating Sepharose (Amersham Pharmacia) column and washed with lysis buffer. Protein was eluted using 20%, 30% and 100% buffer B steps where buffer B was 50 mM HEPES, 200 mM NaCl, 300 mM imidazole, 5% glycerol; pH 7.5. Fractions containing PLK were determined by SOS-PAGE. Fractions containing PLK were diluted five-fold with 50 mM HEPES, 1 mM DTT, 5% glycerol; pH 7.5, then loaded on an SP Sepharose (Amersham Pharmacia) column. After washing the column with 50 mM HEPES, 1 mM DTT, 5% glycerol; pH 7.5, PLK was step eluted with 50 mM HEPES, 1 mM DTT, 500 mM NaCl; 5% glycerol; pH 7.5. PLK was concentrated using a 10 kDa molecular weight cutoff membrane and then loaded onto a Superdex 200 gel filtration (Amersham Pharmacia) column equilibrated in 25 mM HEPES, 1 mM DTT, 500 mM NaCl, 5% glycerol; pH 7.5. Fractions containing PLK were determined by SDS-PAGE. PLK was pooled, aliquoted and stored at −80° C. Samples were quality controlled using mass spectrometry, N-terminal sequencing and amino acid analysis.
B. Enzyme Activity ± Inhibitors was Determined as Follows:
All measurements were obtained under conditions where signal production increased linearly with time and enzyme. Test compounds were added to white 384-well assay plates (0.1 μL for 10 μL and some 20 μL assays, 1 μL for some 20 μL assays) at variable known concentrations in 100% DMSO. DMSO (1-5% final, as appropriate) and EDTA (65 mM in reaction) as controls. Reaction Mix was prepared as follows at 22° C.: • 25 mM HEPES, pH 7.2 • 15 mM MgCl2 • 1 μM ATP • 0.05 μCi/well ^33P-γ ATP (10 Ci/mMol) • 1 μM substrate peptide (Biotin-Ahx-SFNDTLDFD) SEQ ID:No. 2. • 0.15 mg/mL BSA • 1 mM DTT • 2 nM PLK1 kinase domain (added last)
Reaction Mix (10 or 20 μL) was quickly added to each well immediately following addition of enzyme via automated liquid handlers and incubated 1-1.5 h at 22° C. […] Plates were sealed with dear plastic seals, spun at 500×g for 1 min or settled overnight, and counted in Packard TopCount for 30 seconds/well (regular SPA) or imaged using a Viewlux imager (LeadSeeker SPA). […]

The next experiment concerns HT29. Briefly: Inhibition of cell proliferation, HT29. It is filed as cell-based. Conditions: Homo sapiens, HT-29; Colon; 72 h; methylene blue or CellTiter-Glo. The method, then:
(§1) II. Inhibition of Cell Proliferation by PLK1 Inhibitors.
(§2) Exponentially growing cell lines of different tumor origins, cultured in appropriate media containing 10% fetal bovine serum at 37° C. in a 5% CO2 incubator were plated in 96 or 384-well plates. Twenty four hours post-plating, cells were treated with different concentrations of test compounds ranging from 20 μM to 0.04 nM. Several wells were left untreated as a control. Seventy two hours post-treatment, cell numbers were determined using different techniques; 100 μl per well of methylene blue (Sigma M9140) (0.5% in 50:50 Ethanol:water), or 10-100 μl per well of CellTiter-Glo (Promega #G7573), depending on well size. For methylene blue staining, stain was incubated at room temperature for 30 minutes before plates were rinsed and dye solubilized in 1% N-lauroyl sarcosine, sodium salt, (Sigma L5125, in PBS). Plates were read on a microplate reader, measuring the OD at 620 nm. For CellTiter-Glo, plates were incubated at room temperature for 15 minutes and the chemiluminescent signal was read on the Victor V or Envison 2100 reader.
(§3) Percent inhibition of cell growth was expressed as percent proliferation relative to 100% proliferation (control). Concentration of test compound that inhibited 50% of cell growth (IC50) was determined by 4 parameter fit of data using XLfit, (value of no cell control was substracted from all samples for background). The data are shown in Table 1 and Table 2 below and represent a compilation of several different experiments each performed using the general parameters outlined above, although minor variations may have been employed in some instances, in Table 1 and Table 2, +=IC50>1 μM; ++=IC50 0.5-1 μM: +++=IC50<0.5 μM.

The test system of the next experiment is COLO205. Briefly: Inhibition of cell proliferation, COLO205. Conditions: Homo sapiens, COLO 205; Colon; 72 h; methylene blue or CellTiter-Glo. It is filed as cell-based. As to the method: as §1, §2, §3
A further experiment concerns MX-1. The experiment is described as follows: Inhibition of cell proliferation, MX-1. It is filed as cell-based. Conditions: Homo sapiens, MX1; Breast; 72 h; methylene blue or CellTiter-Glo. The method, then:
as §1, §2, §3

The subject of the next experiment is P388. Briefly: Inhibition of cell proliferation, P388. Conditions: Mouse leukemia, 72 h, methylene blue or CellTiter-Glo. It is filed as cell-based. As to the method:
as §1, §2, §3

For a further experiment, the system named is SKOV-3. The experiment is described as follows: Inhibition of cell proliferation, SKOV-3. It is filed as cell-based. Conditions: Homo sapiens, SK-OV-3; Ovarian; 72 h; methylene blue or CellTiter-Glo. The method, then: as §1, §2, §3
For a further experiment, the system named is A549-L. The experiment is described as follows: Inhibition of cell proliferation, A549-L. It is filed as cell-based. Conditions: lung; 72 h; methylene blue or CellTiter-Glo. As to the method:
as §1, §2, §3

T1 sequence (P53350 21-346): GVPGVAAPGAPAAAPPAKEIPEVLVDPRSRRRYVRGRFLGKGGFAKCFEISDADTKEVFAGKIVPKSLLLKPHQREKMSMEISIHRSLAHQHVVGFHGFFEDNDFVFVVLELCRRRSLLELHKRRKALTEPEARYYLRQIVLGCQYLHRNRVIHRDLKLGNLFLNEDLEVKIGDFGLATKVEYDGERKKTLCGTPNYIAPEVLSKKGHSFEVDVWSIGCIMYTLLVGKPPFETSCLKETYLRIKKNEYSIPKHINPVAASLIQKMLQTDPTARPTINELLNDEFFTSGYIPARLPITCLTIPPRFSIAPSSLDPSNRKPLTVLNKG

Take `C[C@@H](Oc1cc(-n2cnc3ccc(S(C)(=O)=O)cc32)sc1C(N)=O)c1cccc(OC2CCNCC2)c1Cl` [Example 60, 3-({(1R)-1-[2-chloro-3-(4-piperidinyloxy)phenyl]ethyl}oxy)-5-[6-(methylsulfonyl)-1H-benzimidazol-1-yl]-2-thiophenecarboxamide]: the pIC50 in the experiment with HCT116 is < 6.00. For the same molecule, the IC50 on PLK1 kinase domain was < 100 nM.

With `C[C@@H](Oc1cc(-n2cnc3cc(Cl)ccc32)sc1C(N)=O)c1cccc(OC2CCN(C)CC2)c1Cl` [Example 3, 5-(5-Chloro-1H-benzimidazol-1-yl)-3-((1R)-1-{2-chloro-3-[(1-methylpiperidin-4-yl)oxy]phenyl}ethoxy)thiophene-2-carboxamide], the negative-log IC50 (pIC50) with HT29, in the experiment on HCT116, with COLO205, in the experiment on MX-1, in the experiment with P388 and in the experiment on SKOV-3 was > 6.30 each time.

On to `Cc1cc(-c2ccc3c(c2)ncn3-c2cc(O[C@H](C)c3cccc(OC4CCNCC4)c3Cl)c(C(N)=O)s2)ccn1` [Example 49, 3-({(1R)-1-[2-Chloro-3-(4-piperidinyloxy)phenyl]ethyl}oxy)-5-[5-(2-methyl-4-pyridinyl)-1H-benzimidazol-1-yl]-2-thiophenecarboxamide], for which the pIC50 in the experiment with HT29, in the experiment on HCT116, in the experiment on COLO205, with MX-1 and in the experiment on SKOV-3 was > 6.30 each time.

`C[C@@H](Oc1cc(-n2cnc3cc(F)c(F)cc32)sc1C(N)=O)c1cccc(OC2CCN(C)CC2)c1Cl` [Example 66, 3-[((1R)-1-(2-chloro-3-[(1-methyl-4-piperidinyl)oxy]phenyl}ethyl)-oxy]-5-(5,6-difluoro-1H-benzimidazol-1-yl)-2-thiophenecarboxamide]: the pIC50 with HT29, with HCT116, with COLO205, in the experiment on MX-1, in the experiment with P388 and in the experiment with SKOV-3 was > 6.30 throughout.

For the molecule `C[C@@H](Oc1cc(-n2cnc3cc(-c4cnn(C)c4)ccc32)sc1C(N)=O)c1cccc(OCC2CCN(C)CC2)c1Cl` [Example 45, 3-{[(1R)-1-(2-Chloro-3-{[(1-methyl-4-piperidinyl)methyl]oxy}phenyl)ethyl]oxy}-5-[5-(1-methyl-1H-pyrazol-4-yl)-1H-benzimidazol-1-yl]-2-thiophenecarboxamide], the pIC50 with HT29, in the experiment on HCT116, in the experiment on COLO205, in the experiment on MX-1, in the experiment with P388 and with A549-L was > 6.30 each time. Moreover, the pIC50 in the experiment on SKOV-3 is > 6.30.

For `C[C@@H](Oc1cc(-n2cnc3ccc(CS(C)(=O)=O)cc32)sc1C(N)=O)c1cccc(OC[C@H]2CCCN2C)c1Cl` [Example 58, 3-({(1R)-1-[2-chloro-3-({[(2R)-1-methyl-2-pyrrolidinyl]methyl}oxy)phenyl]ethyl}oxy)-5-{6-[(methylsulfonyl)methyl]-1H-benzimidazol-1-yl}-2-thiophenecarboxamide], in the experiment with HCT116, the negative logarithm of the IC50 (pIC50) was < 6.00. Also, the IC50 on PLK1 kinase domain is < 100 nM.

Regarding `C[C@@H](Oc1cc(-n2cnc3cc(-c4cnn(C)c4)ccc32)sc1C(N)=O)c1cccc(OC2CCNCC2)c1Cl` [Example 47, 3-({(1R)-1-[2-Chloro-3-(4-piperidinyloxy)phenyl]ethyl}oxy)-5-[5-(1-methyl-1H-pyrazol-4-yl)-1H-benzimidazol-1-yl]-2-thiophenecarboxamide], the pIC50 in the experiment on HT29, with HCT116, in the experiment on COLO205, with MX-1, with P388 and with A549-L was > 6.30 each time. Moreover, the pIC50 in the experiment on SKOV-3 is > 6.30.

Consider `CC(Oc1cc(-n2cnc3cc(-c4cnn(C)c4)ccc32)sc1C(N)=O)c1cc(OC2CCN(C)CC2)ccn1` (stereo not drawn) [Example 86, 3-[(1-{4-[(1-Methyl-4-piperidinyl)oxy]-2-pyridinyl}ethyl)oxy]-5-[5-(1-methyl-1H-pyrazol-4-yl)-1H-benzimidazol-1-yl]-2-thiophenecarboxamide], for which the pIC50 in the experiment on HCT116 was < 6.00. In addition, on PLK1 kinase domain, the IC50 is < 100 nM.

With `C[C@@H](Oc1cc(-n2cnc3cc(S(C)(=O)=O)ccc32)sc1C(N)=O)c1cccc(OC2CCNCC2)c1Cl` [Example 59, 3-({(1R)-1-[2-chloro-3-(4-piperidinyloxy)phenyl]ethyl}oxy)-5-[5-(methylsulfonyl)-1H-benzimidazol-1-yl]-2-thiophenecarboxamide], the pIC50 in the experiment with HCT116 is < 6.00. Moreover, the IC50 at PLK1 kinase domain is < 100 nM.

The values above are taken from US20100075960A1 (priority 2006, published 2010).
